Results from article PMC8809408 (Frontiers in Pharmacology, 2022).

What follows are compounds tested on pseudotyped viruses harboring glycoprotein of vesicular stomatitis virus (VSV).
Format: cell-based

Row | Compound | luciferase activity (infection by VSV-G pseudotyped viruses)
1 | CN(C)CCCC1(c2ccc(F)cc2)OCc2cc(C#N)ccc21 (stereo not shown) [Citalopram] | remained ineffective
2 | CN(C)CCCN1c2ccccc2CCc2ccc(Cl)cc21 [Clomipramine] | reduced the infection
3 | CNCCC(Oc1ccc(C(F)(F)F)cc1)c1ccccc1 (stereo not shown) [Fluoxetine] | reduced the infection
4 | OCCN1CCN(CCC=C2c3ccccc3Sc3ccc(C(F)(F)F)cc32)CC1 [Flupenthixol] | reduced the infection
5 | COCCCC/C(=N\OCCN)c1ccc(C(F)(F)F)cc1 [Fluvoxamine] | remained ineffective
6 | Fc1ccc([C@@H]2CCNC[C@H]2COc2ccc3c(c2)OCO3)cc1 [Paroxetine] | remained ineffective
7 | CCOc1ccccc1OC(c1ccccc1)C1CNCCO1 (stereo not shown) [Reboxetine] | reduced the infection
